# Experimental data published in BindingDB's records for doi:10.7270/Q2VX0F3D (Burnham Center For Chemical Genomics, 2012).
# Target: T1, Corticotropin-releasing factor-binding protein (Homo sapiens, UniProt P24387)
# T1 sequence (P24387 whole entry): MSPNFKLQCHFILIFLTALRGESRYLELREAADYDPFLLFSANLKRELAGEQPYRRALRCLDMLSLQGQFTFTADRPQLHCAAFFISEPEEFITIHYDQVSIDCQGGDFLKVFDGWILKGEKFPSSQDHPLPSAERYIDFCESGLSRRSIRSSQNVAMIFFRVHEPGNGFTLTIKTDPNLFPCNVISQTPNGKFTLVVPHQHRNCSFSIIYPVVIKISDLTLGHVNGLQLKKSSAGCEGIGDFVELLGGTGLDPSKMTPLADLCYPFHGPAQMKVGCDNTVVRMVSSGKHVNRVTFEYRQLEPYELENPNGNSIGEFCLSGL
# Assay: activators of CRF receptor 2 with binding protein – uHTS hits, confirmation (AID 602473)
row,SMILES,EC50
1,"CCCCN1C(=O)NC(=O)C(C(=O)C=Cc2c[nH]c3ccccc23)C1=O (centres undefined) [(5Z)-1-butyl-5-[(E)-3-(1H-indol-3-yl)-1-oxidanyl-prop-2-enylidene]-1,3-diazinane-2,4,6-trione]",6.02 µM
2,Cc1ccc2nc(N3C(=O)C(=O)C(C(=O)c4ccco4)C3c3cccc(O)c3)sc2c1 (centres undefined),> 53 µM
3,O=C(Cc1nc2ccccc2n(-c2ccccc2)c1=O)c1ccccc1 [(3Z)-3-phenacylidene-1-phenyl-4H-quinoxalin-2-one],11.6 µM
4,CCCCCCC1=Cc2c/c(=C(/N)NNC(=O)c3ccncc3)c(=O)oc2=CC1=O,1.11 µM
5,Nc1ccccc1Sc1cc(O)n(-c2ccc3c(c2)OCO3)c1O [SMR000459840],> 53 µM
6,CSc1nnc(C)c(CC=Nc2ccc(C)cc2)n1 [MLS000326071],14.9 µM
7,CN(C)c1ccc(C(N=O)c2ccccc2)cc1 (centres undefined) [[4-(dimethylamino)phenyl]-phenylmethanone oxime],> 53 µM
8,"Cc1ccc2oc(=O)c(CC(=O)c3ccco3)nc2c1 [(3Z)-3-[2-(2-furanyl)-2-oxoethylidene]-6-methyl-4H-1,4-benzoxazin-2-one]",4.74 µM
9,CC(=O)C1C(=O)C(=O)N(c2nccs2)C1c1ccccc1 (centres undefined) [MLS000533923],> 53 µM
10,Cc1nn(-c2ccccc2)c(N2CCCC2)c1CN=Nc1ccc(S(N)(=O)=O)cc1[N+](=O)[O-] [SMR000243538],> 53 µM
11,COc1ccc(C2c3ccc(O)cc3OC(=N)C2C#N)cc1C (centres undefined) [2-amino-7-hydroxy-4-(4-methoxy-3-methylphenyl)-4H-1-benzopyran-3-carbonitrile],> 53 µM
12,"CCCCN(C(=O)c1ccc2c(c1)S(=O)(=O)NC1=CCCCCN12)c1c(N)n(CCCC)c(=O)[nH]c1=O [N-(6-amino-1-butyl-2,4-dioxo-5-pyrimidinyl)-N-butyl-5,5-dioxo-8,9,10,11-tetrahydro-7H-azepino[2,1-c][1,2,4]benzothiadiazine-3-carboxamide]",> 53 µM
13,"O=C(Cc1nc2ccccc2n(-c2ccccc2)c1=O)c1ccc(F)cc1 [3-[2-(4-fluorophenyl)-2-oxoethylidene]-1-phenyl-3,4-dihydro-2(1H)-quinoxalinone]",7.18 µM
14,COC(=O)C1=Nc2nnnn2C(c2ccc(O)c(OC)c2)C1C(=O)c1ccccc1 (centres undefined) [SMR000020111],> 53 µM
15,COc1ccc(C(=O)Cc2nc3ccccc3n(-c3ccccc3)c2=O)cc1 [(3Z)-3-[2-(4-methoxyphenyl)-2-oxidanylidene-ethylidene]-1-phenyl-4H-quinoxalin-2-one],7.85 µM
16,CCC(C)(C)NC(=O)C(c1ccccc1F)N(Cc1ccco1)C(=O)c1csnn1 (centres undefined) [N-[1-(2-fluorophenyl)-2-(2-methylbutan-2-ylamino)-2-oxoethyl]-N-(2-furanylmethyl)-4-thiadiazolecarboxamide],15.6 µM
17,Nc1[nH]c(=O)sc1C=C1C=CC(=O)C=C1 [MLS000697264],> 53 µM
18,COc1cccc(C2C(C(=O)c3ccc(C)o3)C(=O)C(=O)N2CCN2CCOCC2)c1OC (centres undefined) [SMR000665042],> 53 µM
19,"Cc1cc(=O)oc2c1ccc1oc(C(N=O)c3ccccc3)c(C)c12 (centres undefined) [4,9-dimethyl-8-(N-oxidanyl-C-phenyl-carbonimidoyl)furo[2,3-h]chromen-2-one]",> 53 µM
20,N#CC1C(=N)OC2=C(C(=O)CC(c3ccccc3)C2)C1c1ccc2c(c1)OCO2 (centres undefined),> 53 µM
21,CC(=O)C1C(=O)C(=O)N(Cc2ccccc2)C1c1ccc(F)cc1 (centres undefined) [3-ethanoyl-2-(4-fluorophenyl)-4-oxidanyl-1-(phenylmethyl)-2H-pyrrol-5-one],> 53 µM
22,COc1ccccc1NS(=O)(=O)c1ccc(N=NCc2c(C)nn(-c3ccccc3)c2N2CCCC2)c([N+](=O)[O-])c1 [N-(2-methoxyphenyl)-4-[(2E)-2-[(3-methyl-1-phenyl-5-pyrrolidin-1-yl-pyrazol-4-yl)methylidene]hydrazinyl]-3-nitro-benzenesulfonamide],> 53 µM
23,O=c1nncc(N=NC=CCc2ccccc2)[nH]1 [SMR000413415],> 53 µM
24,Cc1cc2c(cc1C)NC(c1c(C)n(C)n(-c3ccccc3)c1=O)C1C(=O)CC(C)(C)CC1=N2 (centres undefined),> 53 µM
